In general, inhibition refers to the percentage by which the read-out fell short of the control. The low end stands for a response near the control, the high end for a response far below the control.

This is an account of results in patent US20150051144A1, “COMPOUNDS FOR THE TREATMENT OF DYSLIPIDEMIA AND OTHER DISEASES” (Cadila Healthcare Limited, priority 2012, published 2015).

This experiment deals with PCSK9 (Homo sapiens, UniProt Q8NBP7). The experiment can be described thus: PCSK9-LDLR in vitro Binding Assay (solid phase, ELISA readout). As to conditions: for inhibition at 10 µM: test compound concentration 10 μM; for inhibition at 100 µM: test compound concentration 100 μM. On the procedure:
The PCSK9-LDLR in vitro Binding Assay is a quantitative solid phase binding assay between PCSK9 and recombinant LDLR. Plates were pre-coated with a recombinant LDLR-AB domain, which binds PCSK9. Test compound at different concentration was added to the PCSK9 and added to LDLR immobilized on the wells. The amount of bound PCSK9 is measured by binding it with biotinylated anti-His-tag monoclonal antibody, followed by binding with horseradish peroxidase conjugated streptavidin substrate. The color was quantified by ELISA reader at […] which reflects the relative amount of PCSK9 that binds to LDLR in presence and absence of the inhibitor.
In general terms: An ELISA detects its analyte on a solid surface through an enzyme-linked reagent.

Sequence of PCSK9 (Q8NBP7 153-692): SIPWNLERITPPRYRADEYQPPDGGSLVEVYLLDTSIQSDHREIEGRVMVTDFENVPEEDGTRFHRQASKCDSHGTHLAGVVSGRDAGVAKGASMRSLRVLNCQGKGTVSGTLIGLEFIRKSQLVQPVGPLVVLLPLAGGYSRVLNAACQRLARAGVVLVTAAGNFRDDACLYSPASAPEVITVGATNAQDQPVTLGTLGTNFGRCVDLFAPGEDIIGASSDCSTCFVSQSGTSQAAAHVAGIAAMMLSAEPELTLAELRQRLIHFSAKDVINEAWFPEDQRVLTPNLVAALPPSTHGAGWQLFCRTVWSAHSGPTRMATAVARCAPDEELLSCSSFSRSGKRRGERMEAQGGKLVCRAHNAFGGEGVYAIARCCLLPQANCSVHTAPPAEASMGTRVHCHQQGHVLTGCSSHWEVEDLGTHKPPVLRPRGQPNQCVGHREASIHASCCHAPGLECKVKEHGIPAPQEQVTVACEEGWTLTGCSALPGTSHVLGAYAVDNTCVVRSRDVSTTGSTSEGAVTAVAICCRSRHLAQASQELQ
Sequence of PCSK9 (Q8NBP7 31-152 partner limits assumed): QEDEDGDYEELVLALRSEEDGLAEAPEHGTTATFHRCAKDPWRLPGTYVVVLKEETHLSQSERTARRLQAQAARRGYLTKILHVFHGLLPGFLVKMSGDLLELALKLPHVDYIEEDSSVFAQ

As to `CCC(=NOCc1ccc(C(F)(F)F)cc1)c1ccc(OCC(=O)Nc2cc(C)nn2C)cc1` [Example 22, N-(1,3-Dimethyl-1H-pyrazol-5-yl)-2-(4-(1-(((4-(trifluoromethyl)benzyl)oxy)imino)propyl)phenoxy)acetamide], 10 µM produced 35% inhibition and testing at 100 µM gave an inhibition of 60%. Compound `COc1ccc(CON=C(Cc2ccccc2)c2ccc(OCC(=O)N3CCOCC3)c(C)c2)cc1` [Example 36, 2-(4-(1-(((4-methoxybenzyl)oxy)imino)-2-phenylethyl)-2-methylphenoxy)-1-morpholinoethanone] showed an inhibition at 10 µM of 22% and an inhibition at 100 µM of 40%. In the case of `O=C(COc1ccc(C(Cc2ccccc2)=NOCc2ccc(C(F)(F)F)cc2)cc1)N1CCOCC1` [Example 4, 1-Morpholino-2-(4-(2-phenyl-1-(((4-(trifluoromethyl)benzyl)oxy)imino)ethyl)phenoxy)ethanone], testing at 10 µM gave an inhibition of 31% and at 100 µM the inhibition was 62%. `Cc1ccnc(NC(=O)COc2ccc3c(c2)CCCC3=NOCc2ccc(C(F)(F)F)cc2)n1` [Example 60, N-(4-methylpyrimidin-2-yl)-2-((5-(((4-(trifluoromethyl)benzyl)oxy)imino)-5,6,7,8-tetrahydronaphthalen-2-yl)oxy)acetamide]: 10 µM produced 61% inhibition and testing at 100 µM gave an inhibition of 91%. Compound `CC(C)(C)OC(=O)N1CCC(ONC(=O)COc2ccc(C(Cc3ccccc3)=NOCc3ccc(C(F)(F)F)cc3)cc2)CC1` [Example 8, tert-Butyl 4-((2-(4-(2-phenyl-1-(((4-(trifluoromethyl)benzyl)oxy)imino)ethyl)phenoxy)acetamido)oxy)piperidine-1-carboxylate] came in with an inhibition at 10 µM of 50% and an inhibition at 100 µM of 52%. On the same counts, the results for `O=C(COc1ccc2c(c1)CCCC2=NOCc1ccc(C(F)(F)F)cc1)Nc1nc2cc(Cl)ccc2o1` [Example 59, N-(5-chlorobenzo[d]oxazol-2-yl)-2-((5-(((4-(trifluoromethyl)benzyl)oxy)imino)-5,6,7,8-tetrahydronaphthalen-2-yl)oxy)acetamide] are 49% and 79%.

With `Cc1cc(C(Cc2ccccc2)=NOCc2ccc(OC(F)(F)F)cc2)ccc1OCC(=O)N1CCOCC1` [Example 34, 2-(2-methyl-4-(2-phenyl-1-(((4-(trifluoromethoxy)benzyl)oxy)imino)ethyl)phenoxy)-1-morpholinoethanone], the inhibition at 10 µM is 25% and the inhibition at 100 µM was found to be 46%. As to `CCC(=NOCc1ccc(C(F)(F)F)cc1)c1ccc(OCC(=O)N2CCCCC2)cc1` [Example 15, 1-(Piperidin-1-yl)-2-(4-(1-(((4-(trifluoromethyl)benzyl)oxy)imino)propyl)phenoxy)ethanone], at 10 µM the inhibition was 32% and at 100 µM the inhibition was 64%. On the same counts, the results for `O=C(COc1ccc(C(Cc2ccccc2)=NOCc2ccc(OC(F)(F)F)cc2)cc1)N1CCOCC1` [Example 35, 1-morpholino-2-(4-(2-phenyl-1-(((4-(trifluoromethoxy)benzyl)oxy)imino)ethyl)phenoxy)ethanone] are 26% and 42%. `COc1ccc(CON=C(Cc2ccccc2)c2ccc(OCC(=O)N3CCCCC3)c(C)c2)cc1` [Example 40, 2-(4-(1-(((4-methoxybenzyl)oxy)imino)-2-phenylethyl)-2-methylphenoxy)-1-(piperidin-1-yl)ethanone] showed an inhibition at 10 µM of 24% and an inhibition at 100 µM of 50%. As to `O=C(COc1ccc2c(c1)CCCC2=NOCc1ccc(C(F)(F)F)cc1)NN1CCOCC1` [Example 57, N-morpholino-2-((5-(((4-(trifluoromethyl)benzyl)oxy)imino)-5,6,7,8-tetrahydronaphthalen-2-yl)oxy)acetamide], 10 µM produced 50% inhibition and the inhibition at 100 µM is 59%. For `Cc1cc(C(Cc2ccsc2)=NOCc2ccc(C(F)(F)F)cc2)ccc1OCC(=O)N1CCOCC1` [Example 10, 2-(2-Methyl-4-(2-(thiophen-3-yl)-1-(((4-(trifluoromethyl)benzyl)oxy)imino)ethyl)phenoxy)-1-morpholinoethanone], 10 µM produced 21% inhibition and the inhibition at 100 µM is 53%.

Take `[C-]#[N+]c1ccccc1NC(=O)COc1ccc2c(c1)CCCC2=NOCc1ccc(C(F)(F)F)cc1` [Example 63, N-(2-isocyanophenyl)-2-((5-(((4-(trifluoromethyl)benzyl)oxy)imino)-5,6,7,8-tetrahydronaphthalen-2-yl)oxy)acetamide]: 10 µM produced 48% inhibition and the inhibition at 100 µM turned out to be 58%.

As to `O=C(COc1ccc2c(c1)CCCC2=NOCc1ccc(C(F)(F)F)cc1)NN1CCCCC1` [Example 58, N-(piperidin-1-yl)-2-((5-(((4-(trifluoromethyl)benzyl)oxy)imino)-5,6,7,8-tetrahydronaphthalen-2-yl)oxy)acetamide], the inhibition at 10 µM was 50% and testing at 100 µM gave an inhibition of 53%.

`CCC(=NOCc1ccc(C(F)(F)F)cc1)c1ccc(OCC(=O)N(CCO)c2ccccc2)cc1` [Example 20, N-(2-Hydroxyethyl)-N-phenyl-2-(4-(1-(((4-(trifluoromethyl)benzyl)oxy)imino)propyl)phenoxy)acetamide]: the inhibition at 10 µM worked out at 20% and the inhibition at 100 µM came out at 54%. With `Cc1cc(C(Cc2ccccc2)=NOCc2ccc(C(F)(F)F)cc2)ccc1OCC(=O)N1CCOCC1` [Example 1, 2-(2-Methyl-4-(2-phenyl-1-(((4-(trifluoromethyl)benzyl)oxy)imino)ethyl)phenoxy)-1-morpholinoethanone], at 10 µM the inhibition was 50% and the inhibition at 100 µM was determined as 51%.

Compound `O=C(COc1ccc2c(c1)CCCC2=NOCc1ccc(C(F)(F)F)cc1)N1CCCCC1` [Example 54, 1-(piperidin-1-yl)-2-((5-(((4-(trifluoromethyl)benzyl)oxy)imino)-5,6,7,8-tetrahydronaphthalen-2-yl)oxy)ethanone] showed an inhibition at 10 µM of 40% and an inhibition at 100 µM of 62%. On to `CCC(=NOCc1ccc(C(F)(F)F)cc1)c1ccc(OCC(=O)N2CCOCC2)cc1` [Example 13, 1-Morpholino-2-(4-(1-(((4-(trifluoromethyl)benzyl)oxy)imino)propyl)phenoxy)ethanone], for which the inhibition at 10 µM was found to be 52% and 100 µM produced 54% inhibition. In the same order, the values of `Cc1ccc(CON=C(Cc2ccccc2)c2ccc(OCC(=O)N3CCOCC3)c(C)c2)cc1` [Example 26, 2-(2-Methyl-4-(1-(((4-methylbenzyl)oxy)imino)-2-phenylethyl)phenoxy)-1-morpholinoethanone] are 32% and 44%. `CC(=NOCc1ccc(C(F)(F)F)cc1)c1ccc(OCC(=O)N2CCOCC2)cc1` [Example 11, 1-Morpholino-2-(4-(1-(((4-(trifluoromethyl)benzyl)oxy)imino)ethyl)phenoxy)ethanone] yielded an inhibition at 10 µM of 26% and an inhibition at 100 µM of 57%. On to `CC(C)(C)OC(=O)N1CCC(ONC(=O)COc2ccc3c(c2)CCCC3=NOCc2ccc(C(F)(F)F)cc2)CC1` [Example 62, tert-butyl 4-((2-((5-(((4-(trifluoromethyl)benzyl)oxy)imino)-5,6,7,8-tetrahydronaphthalen-2-yl)oxy)acetamido)oxy)piperidine-1-carboxylate], for which the inhibition at 10 µM is 57% and at 100 µM the inhibition was 73%. In the same order, the values of `O=C(COc1ccc(C(Cc2ccccc2)=NOCc2ccccc2)cc1)N1CCOCC1` [Example 25, 2-(4-(1-((Benzyloxy)imino)-2-phenylethyl)phenoxy)-1-morpholinoethanone] are 27% and 40%. In turn, `CCC(=NOCCn1ccc2ccccc21)c1ccc(OCC(=O)N2CCN(C)CC2)cc1` [Example 46, 2-(4-(1-((2-(1H-indol-1-yl)ethoxy)imino)propyl)phenoxy)-1-(4-methylpiperazin-1-yl)ethanone] displayed an inhibition at 10 µM of 27% and an inhibition at 100 µM of 59%. `Cc1cc(C(Cc2ccccc2)=NOCc2ccc(C(F)(F)F)cc2)ccc1OCC(=O)NCC(=O)N1CCOCC1` [Example 3, 2-(2-Methyl-4-(2-phenyl-1-(((4-(trifluoromethyl)benzyl)oxy)imino)ethyl)phenoxy)-N-(2-morpholino-2-oxoethyl)acetamide] came in with an inhibition at 10 µM of 32% and an inhibition at 100 µM of 38%. In the same order, the values of `CCC(=NOCc1nc(-c2ccccc2)oc1C)c1ccc(OCC(=O)N2CCN(C)CC2)cc1` [Example 50, 2-(4-(1-(((5-methyl-2-phenyloxazol-4-yl)methoxy)imino)propyl)phenoxy)-1-(4-methylpiperazin-1-yl)ethanone] are 22% and 42%. The compound `O=C(COc1ccc(C(Cc2ccccc2)=NOCc2ccc(C(F)(F)F)cc2)cc1)NN1CCOCC1` [Example 9, N-Morpholino-2-(4-(2-phenyl-1-(((4-(trifluoromethyl)benzyl)oxy)imino)ethyl)phenoxy)acetamide] showed an inhibition at 10 µM of 53% and an inhibition at 100 µM of 33%.

`CN1CCN(C(=O)COc2ccc3c(c2)CCCC3=NOCc2ccc(C(F)(F)F)cc2)CC1` [Example 56, 1-(4-methylpiperazin-1-yl)-2-((5-(((4-(trifluoromethyl)benzyl)oxy)imino)-5,6,7,8-tetrahydronaphthalen-2-yl)oxy)ethanone] displayed an inhibition at 10 µM of 63% and an inhibition at 100 µM of 66%. `CN1CCN(C(=O)COc2ccc(C(Cc3ccccc3)=NOCc3ccc(C(F)(F)F)cc3)cc2)CC1` [Example 6, 1-(4-Methylpiperazin-1-yl)-2-(4-(2-phenyl-1-(((4-(trifluoromethyl)benzyl)oxy)imino)ethyl)phenoxy)ethanone]: the inhibition at 10 µM came to 49%.
